Results published in US5516797A, “Immunosuppressive compounds” (Vertex Pharmaceuticals, Incorporated, priority 1994, dated 1996).

Assays:
[1] = system: human peripheral blood lymphocytes; test: Human PBL + OKT3 proliferation (Table 5, assay 1); format: cell-based; conditions: Lymphocyte, [3H]TdR incorporation, estimated
Procedure: 1) Assay similar to Yoshimura, N. et al., Transplantation 47:356-359 (1989). Assay uses fresh human peripheral blood lymphocytes isolated by Ficoll-Hypaque density centrifugation, stimulated bythe OKT3 antibody (anti-CD3) which stimulates via interaction with CD3. Stimulation is measured by incorporation of radioactive thymidine [(^3 H)TdR] into proliferating cells, with an uninhibited control signal of 48,000-75,000 cpm. IC50 values are estimated from inhibitions of proliferation observed at various drug concentrations.

[2] = system: T-cell clone stimulated with antibody to TCR and CD2; test: T-Cell Hybridoma + TCR/CD2 proliferation (Table 5, assay 2); format: cell-based; conditions: [3H]TdR incorporation, estimated
Procedure: 2) Assay similar to above, but using T-cell clone stimulated with antibody to the T-cell receptor (TCR) and antibody to CD2. Stimulation is measured by incorporation of radioactive thymidine [(^3 H)TdR] into proliferating cells, with an uninhibited control signal of 23,000 cpm. IC50 values are estimated from inhibitions of proliferation observed at various drug concentrations.

T-cell hybridoma = test: Apoptosis: activation-induced (anti-CD3) cell death in T-cell hybridoma (Table 5, assay 3); format: cell-based
Excerpt: 3) Assay according to Shi, Y. et al., Nature 339:625-626 (1989). The assay uses a T-cell hybridoma similar to that described. The assay measures activation-induced (anti-CD3) cell death (evaluated by counting viable cells after staining as described) in a T-cell hybridoma that mimics the effect known to occur in immature thymocytes.

CTLL cells = test: CTLL Proliferation + IL-2 (Table 5, assay 4); format: cell-based, murine; conditions: Mus musculus, CTLL; exogenous IL-2; [3H]TdR incorporation
Procedure: 4) Assay according to DuMont, F. et al., J. Immunol. 144:251-258 (1990). The assay measures the stimulation of CTLL cells in response to IL-2. Proliferation is measured by incorpoation of (^3 H)TdR. […] In this assay, exogenous IL-2 is provided to overcome this block.
Fresh peripheral blood lymphocytes (PBLs) from LeukoPak cells or whole blood from random normal blood donors (tested HIV-negative and hepatitis negative) are isolated and separated by density centrifugation over Histopaque 1077 (Sigma Chemical Co., St. Louis, Mo.). The murine CTLL cytotoxic T cell line and the human Jurkat T cell line are from ATCC (CTLL-2 ATCC TIB214, JURKAT CLONE E6-1 ATCC TIBl52). The human allogeneic B cell lines used for activation of the fresh PBLs are EBV-transformed lymphocytes from normal healthy adult donors with two completely different HLAhaplotypes. All cell lines were routinely tested for the presence of Mycolasma contamination using the GibcoMycotect test kit and are Mycolasma-free. Culture medium consksts of RPMI 1640 (Gibco, Grand Island, N.Y.) containing penicillin (50 U/ml) and streptomycin (50 μg/ml), L-glutamine 2 mM, 2 mercaptoethanol (5×10^-5), 10% heat-inactivated FCS and 10 mM HEPES.

IL-2 production = conditions: in vitro; cited from earlier work
mixed lymphocyte culture = conditions: in vitro; cited from earlier work
cytotoxic T-cell = conditions: in vitro; cited from earlier work
binding protein (FKBP) = conditions: cited from earlier work
PPIase = conditions: cited from earlier work
CTLLs = conditions: cited from earlier work

In the case of C=CC[C@@H]1/C=C(\C)C[C@H](C)C[C@H](OC)[C@H]2O[C@@](O)(C(=O)C(=O)N3CCCC[C@H]3C(=O)O[C@H](/C(C)=C/[C@@H]3CC[C@@H](O)[C@H](OC)C3)[C@H](C)[C@@H](O)CC1=O)[C@H](C)C[C@@H]2OC [FK-506], the IC50 [1] is reported as less than 1 µg/mL, the IC50 [2] is reported as less than 1 µg/mL and the “activity in activation-induced cell death assay (in words)” value (T-cell hybridoma) is reported as “inhibit this cell death”. For the same compound, the “Apoptosis (activation-induced cell death)” value (T-cell hybridoma; at 1 μg/ml) was “Blocks”, the IC50 (CTLL cells) was greater than 1 µg/mL and the “inhibition of IL-2 production, concentration relative to cyclosporin A” value (IL-2 production) was 100 times lower concentration than cyclosporin A. For the same compound, the “inhibition of mixed lymphocyte culture response, concentration relative to cyclosporin A” value (mixed lymphocyte culture) was 100 times lower concentration than cyclosporin A, the “inhibition of cytotoxic T-cell generation, concentration relative to cyclosporin A” value (cytotoxic T-cell) was 100 times lower concentration than cyclosporin A and the “binding to FKBP” value (binding protein (FKBP)) was “binds to a binding protein (FKBP) distinct from cyclophilin”. The “inhibition of PPIase activity” value (PPIase) was “inhibits PPIase activity” and the “IL-2 dependent proliferation of the CTLLs” value (CTLLs) was “do not”.
